What was measured:
ENR+CD organoids = assay: Primary screen: ATP (CellTiter-Glo 3D, CTG) cell number/viability, 2.5-D 384-well ENR+CD organoids; conditions: primary screen;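 note: compounds given at plating and again on day 3 over a 6-day differentiation from ENR+CV stem-cell-enriched precursors, ATP measured on day 6, plate median as control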
[1] = test system: ENR+CD organoids (ISC to Paneth cell differentiation); assay: Primary screen: basal (non-stimulated) lysozyme secretion LYZ.NS, 2.5-D 384-well ENR+CD organoid differentiation; type: cell-based, mouse; conditions: primary screen; for Z.LYZ.NS: standard z score
From the text: (§1) High-throughput screening.

[2] = test system: ENR+CD organoids (ISC to Paneth cell differentiation); assay: Primary screen: CCh-stimulated lysozyme secretion LYZ.S, 2.5-D 384-well ENR+CD organoid differentiation; type: cell-based, mouse; conditions: primary screen
From the text: as §1

| SMILES | Dose.FC.CTG (log2 fold change) (ENR+CD organoids; dose 0.40 uM) | Z.CTG (standard z score) (ENR+CD organoids; dose 0.40 uM) | Dose.FC.CTG (log2 fold change) (ENR+CD organoids; dose 2.00 uM) | Z.CTG (standard z score) (ENR+CD organoids; dose 2.00 uM) | Dose.FC.CTG (log2 fold change) (ENR+CD organoids; dose 10.00 uM) | Z.CTG (standard z score) (ENR+CD organoids; dose 10.00 uM) | Dose.FC.LYZ.NS (log2 fold change) ([1]; dose 0.40 uM) | Z.LYZ.NS (standard z score) ([1]; dose 0.40 uM) | Dose.FC.LYZ.NS (log2 fold change) ([1]; dose 2.00 uM) | Z.LYZ.NS (standard z score) ([1]; dose 2.00 uM) | Dose.FC.LYZ.NS (log2 fold change) ([1]; dose 10.00 uM) | Z.LYZ.NS (standard z score) ([1]; dose 10.00 uM) | Dose.FC.LYZ.S (log2 fold change) ([2]; dose 0.40 uM) | Dose.FC.LYZ.S (log2 fold change) ([2]; dose 2.00 uM) | Dose.FC.LYZ.S (log2 fold change) ([2]; dose 10.00 uM) | Dose.FC.CTG (ENR+CD organoids; dose 0.08 uM) | Dose.FC.CTG (ENR+CD organoids; dose 0.40 uM) | Dose.FC.CTG (ENR+CD organoids; dose 2.00 uM) | Dose.FC.CTG (ENR+CD organoids; dose 10.00 uM) | Z.LYZ.NS (standard z score) ([1]; dose 0.08 uM) | also measured |
| --- | --- | --- | --- | --- | --- | --- | --- | --- | --- | --- | --- | --- | --- | --- | --- | --- | --- | --- | --- | --- | --- |
| NC(=O)c1ccc(I)c([N+](=O)[O-])c1 [Iniparib (BSI-201)] | 0.181 | 0.432 | 0.157 | 0.375 | 0.244 | 0.583 | 0.000 | 0.003 | 0.016 | 0.138 | −0.016 | −0.139 | 0.035 | −0.001 | −0.010 |  |  |  |  |  |  |
| COc1ccc2c(c1)c(CC(=O)N1CCOCC1)c(C)n2C(=O)c1ccc(Cl)cc1 [BML-190] |  | −0.237 |  | −0.254 |  | −0.254 |  | −0.152 |  | 1.011 |  | 1.823 |  |  |  | −0.003 log2 fold change | −0.099 log2 fold change | −0.106 log2 fold change | −0.106 log2 fold change | 0.623 | Z.CTG (standard z score) (ENR+CD organoids; dose 0.08 uM): −0.007; Dose.FC.LYZ.NS ([1]; dose 0.08 uM): 0.072 log2 fold change; Dose.FC.LYZ.NS ([1]; dose 0.40 uM): −0.017 log2 fold change; Dose.FC.LYZ.NS ([1]; dose 2.00 uM): 0.116 log2 fold change; Dose.FC.LYZ.NS ([1]; dose 10.00 uM): 0.209 log2 fold change; Dose.FC.LYZ.S ([2]; dose 0.08 uM): 0.060 log2 fold change; Dose.FC.LYZ.S ([2]; dose 0.40 uM): −0.037 log2 fold change; Dose.FC.LYZ.S ([2]; dose 2.00 uM): 0.017 log2 fold change; Dose.FC.LYZ.S ([2]; dose 10.00 uM): 0.067 log2 fold change |
| O=C(/C=C/c1ccc(O)c(O)c1)OCCc1ccccc1 [Caffeic Acid Phenethyl Ester] |  |  |  |  |  |  |  |  |  |  |  |  |  |  |  | 0.262 log2 fold change | −0.011 log2 fold change | −0.064 log2 fold change | −0.511 log2 fold change |  | Dose.FC.LYZ.NS ([1]; dose 0.08 uM): 0.053 log2 fold change; Dose.FC.LYZ.NS ([1]; dose 0.40 uM): 0.167 log2 fold change; Dose.FC.LYZ.NS ([1]; dose 2.00 uM): 0.090 log2 fold change; Dose.FC.LYZ.NS ([1]; dose 10.00 uM): −0.026 log2 fold change; Z.LYZ.NS ([1]; dose 0.08 uM): 0.465; Z.LYZ.NS ([1]; dose 0.40 uM): 1.453; Z.LYZ.NS ([1]; dose 2.00 uM): 0.781; Z.LYZ.NS ([1]; dose 10.00 uM): −0.227; Dose.FC.LYZ.S ([2]; dose 0.08 uM): 0.189 log2 fold change; Dose.FC.LYZ.S ([2]; dose 0.40 uM): 0.070 log2 fold change; Dose.FC.LYZ.S ([2]; dose 2.00 uM): −0.021 log2 fold change; Dose.FC.LYZ.S ([2]; dose 10.00 uM): −0.117 log2 fold change |
| CCN1CCC[C@H]1CNC(=O)c1cc(S(N)(=O)=O)ccc1OC [Levosulpiride] | −0.006 |  | 0.031 |  | 0.090 |  | 0.024 | 0.205 | 0.051 | 0.441 | −0.028 | −0.240 | 0.128 | 0.124 | −0.026 |  |  |  |  | 0.114 | Dose.FC.CTG (log2 fold change) (ENR+CD organoids; dose 0.08 uM): −0.043; Dose.FC.LYZ.NS (log2 fold change) ([1]; dose 0.08 uM): 0.013; Dose.FC.LYZ.S (log2 fold change) ([2]; dose 0.08 uM): −0.017 |
| C#Cc1cccc(Nc2ncnc3cc4c(cc23)OCCOCCOCCO4)c1 [Icotinib] | −0.061 |  | −0.406 |  | −1.068 |  | −0.073 | −0.632 | −0.133 | −1.160 | −0.289 | −2.518 | −0.090 | −0.243 | −0.419 |  |  |  |  | 0.255 | Dose.FC.CTG (log2 fold change) (ENR+CD organoids; dose 0.08 uM): −0.020; Dose.FC.LYZ.NS (log2 fold change) ([1]; dose 0.08 uM): 0.029; Dose.FC.LYZ.S (log2 fold change) ([2]; dose 0.08 uM): 0.094 |

— patent publication US20220323406A1, “METHODS AND COMPOSITIONS FOR DIFFERENTIATING STEM CELLS” (Massachusetts Institute of Technology, priority 2019, published 2022)
